Results as given in patent publication US20250000989A1, “PYRROLO BENZODIAZEPINE DERIVATIVE, AND CONJUGATE, PREPARATION METHOD AND USE THEREOF” (priority 2021, published 2025).

What was measured:
Experiment in all cases: Inhibition of in vitro proliferation of tumor cells by PBD compounds (CTG)
Assay type in all cases: cell-based
[1] = test system: MKN45 (human gastric cancer cells); details: MKN-45, 144 h, 6 days of culture
Protocol: (§1) The objective of this assay is to measure the activity of the compounds of the present disclosure in inhibiting the proliferation of different tumor cell lines: SK-BR-3 tumor cells (human breast cancer cells, ATCC, Cat. No. HTB-30), NCI-H23 (human non-small cell lung cancer cells, Nanjing Cobioer, Cat. No. CBP60132), and MKN45 (human gastric cancer cells, Nanjing Cobioer, Cat. No. CBP60488). The cells were treated in vitro with different concentrations of the compounds. After 6 days of culture, the proliferation of the cells was measured using CTG (CellTiter-Glo® Luminescent Cell Viability Assay, Promega, Cat. No. G7573) reagent, and the in vitro activity of the compounds was evaluated based on their IC50 values.
(§2) • 1. Cell culture: SK-BR-3, NCI-H23, and MKN45 cells were separately cultured in McCoy's 5A medium (ThermoFisher, Cat. No. 16600108) and RPMI 1640 medium (ThermoFisher, Cat. No. 11875119) containing 10% FBS (Gibco, 10099-141). • 2. Cell plating: After being digested with trypsin (0.25% Trypsin-EDTA (1×), Life Technologies, Cat. No. 25200-072), the SK-BR-3, NCI-H23, and MKN45 were resuspended in their respective media and counted. The density was adjusted to 1.48×10^4 cells/mL, and the cells were plated onto 96-well plates (corning, Cat. No. 3903) at 135 μL/well, i.e., 2000 cells/well, and cultured at 37° C. for 24 h. • 3. Drug formulation: PBD drugs were formulated in round-bottom 96-well plates. Plate 1: In the first column, the concentration was 0.05 mM; in the second column through the fourth column, a 3-fold serial dilution was performed in DMSO; in the fifth column through the sixth column, a 5-fold serial dilution was performed in DMSO; in the seventh column through the ninth column, a 10-fold serial dilution was performed in DMSO; and the tenth column contained DMSO. Plate 2: Corresponding media were added to the first column through the tenth column at 196 μL/well; 4 μL of solution was transferred from each well of the first column through the tenth column of plate 1 to plate 2 and well mixed with the medium; 15 μL of the mixture was added to the cells plated the day before, and the cells were cultured at 37° C. for another 6 days. • 4. CTG assay: The cell culture plates were taken out and equilibrated to room temperature. CTG was added at 75 μL/well, and the plates were incubated at room temperature in the dark for 10 min. Then luminescence values were measured on a microplate reader (BMG labtech, PHERAstar FS).

[2] = test system: NCI-H23 (human non-small cell lung cancer cells); details: 144 h, 6 days of culture
Protocol: as §1, §2

[3] = test system: SK-BR-3 tumor cells (human breast cancer cells); details: 144 h, 6 days of culture
Protocol: as §1, §2

SMILES	IC50 [1]	IC50 [2]	IC50 [3]
COc1cc2c(cc1OCCCCCOc1cc3c(cc1OC)C(=O)N1C=C(c4ccc(N5CCN(C)CC5)cc4)C[C@H]1CN3)N=C[C@@H]1CC3(CC3)CN1C2=O [2-1, (S)-7-Methoxy-8-((5-(((S)-7-methoxy-2-(4-(4-methylpiperazin-1-yl)phenyl)-5-oxo-5,10,11,11a-tetrahydro-1H-benzo[e]pyrrolo[1,2-a][1,4]diazepin-8-yl)oxy)pentyl)oxy)-1,11a-dihydro-3H,5H-spiro[benzo[e]pyrrolo[1,2-a][1,4]diazepine-2,1′-cyclopropan]-5-one]	20 pM	20 pM	70 pM
COc1cc2c(cc1OCCCCCOc1cc3c(cc1OC)C(=O)N1C=C(c4ccc(N5CCOCC5)cc4)C[C@H]1CN3)N=C[C@@H]1CC3(CC3)CN1C2=O [2-2, (S)-7-Methoxy-8-((5-(((S)-7-methoxy-2-(4-morpholinylphenyl)-5-oxo-5,10,11,11a-tetrahydro-1H-benzo[e]pyrrolo[1,2-a][1,4]diazepin-8-yl)oxy)pentyl)oxy)-1,11a-dihydro-3H,5H-spiro[benzo[e]pyrrolo[1,2-a][1,4]diazepine-2,1′-cyclopropan]-5-one]	90 pM	20 pM	50 pM
COc1cc2c(cc1OCCCCCOc1cc3c(cc1OC)C(=O)N1C=C(c4ccc(SC5CC5)cc4)C[C@H]1CN3)N=C[C@@H]1CC3(CC3)CN1C2=O [2-3]	490 pM	50 pM	200 pM
COc1cc2c(cc1OCCCCCOc1cc3c(cc1OC)C(=O)N1C=C(c4ccc(-n5cccn5)cc4)C[C@H]1CN3)N=C[C@@H]1CC3(CC3)CN1C2=O [2-4, (S)-8-((5-(((S)-2-(4-(1H-Pyrazol-1-yl)phenyl)-7-methoxy-5-oxo-5,10,11,11a-tetrahydro-1H-benzo[e]pyrrolo[1,2-a][1,4]diazepin-8-yl)oxy)pentyl)oxy)-7-methoxy-1,11a-dihydro-3H,5H-spiro[benzo[e]pyrrolo[1,2-a][1,4]diazepine-2,1′-cyclopropan]-5-one]	1450 pM	340 pM	710 pM
COc1cc2c(cc1OCCCCCOc1cc3c(cc1OC)C(=O)N1C=C(c4ccc(C5CCOCC5)cc4)C[C@H]1CN3)N=C[C@@H]1CC3(CC3)CN1C2=O [2-5, (S)-7-Methoxy-8-((5-(((S)-7-methoxy-5-oxo-2-(4-(tetrahydro-2H-pyran-4-yl)phenyl)-5,10,11,11a-tetrahydro-1H-benzo[e]pyrrolo[1,2-a][1,4]diazepin-8-yl)oxy)pentyl)oxy)-1,11a-dihydro-3H,5H-spiro[benzo[e]pyrrolo[1,2-a][1,4]diazepine-2,1′-cyclopropan]-5-one]	910 pM	410 pM	1840 pM
COc1cc2c(cc1OCCCCCOc1cc3c(cc1OC)C(=O)N1C=C(c4ccc(C5CCN(C)CC5)cc4)C[C@H]1CN3)N=C[C@@H]1CC3(CC3)CN1C2=O [2-6, (S)-7-Methoxy-8-((5-(((S)-7-methoxy-2-(4-(1-methylpiperidin-4-yl)phenyl)-5-oxo-5,10,11,11a-tetrahydro-1H-benzo[e]pyrrolo[1,2-a][1,4]diazepin-8-yl)oxy)pentyl)oxy)-1,11a-dihydro-3H,5H-spiro[benzo[e]pyrrolo[1,2-a][1,4]diazepine-2,1′-cyclopropan]-5-one]	60 pM	30 pM	240 pM
COc1cc2c(cc1OCCCCCOc1cc3c(cc1OC)C(=O)N1C=C(c4ccc(-n5nccn5)cc4)C[C@H]1CN3)N=C[C@@H]1CC3(CC3)CN1C2=O [2-7, (S)-8-((5-(((S)-2-(4-(2H-1,2,3-Triazol-2-yl)phenyl)-7-methoxy-5-oxo-5,10,11,11a-tetrahydro-1H-benzo[e]pyrrolo[1,2-a][1,4]diazepin-8-yl)oxy)pentyl)oxy)-7-methoxy-1,11a-dihydro-3H,5H-spiro[benzo[e]pyrrolo[1,2-a][1,4]diazepine-2,1′-cyclopropan]-5-one]	70 pM	40 pM	80 pM
COc1cc2c(cc1OCCCCCOc1cc3c(cc1OC)C(=O)N1C=C(c4ccc(C5CCN(CCO)CC5)cc4)C[C@H]1CN3)N=C[C@@H]1CC3(CC3)CN1C2=O [2-9, (S)-8-((5-(((S)-2-(4-(1-(2-Hydroxyethyl)piperidin-4-yl)phenyl)-7-methoxy-5-oxo-5,10,11,11a-tetrahydro-1H-benzo[e]pyrrolo[1,2-a][1,4]diazepin-8-yl)oxy)pentyl)oxy)-7-methoxy-1,11a-dihydro-3H,5H-spiro[benzo[e]pyrrolo[1,2-a][1,4]diazepine-2,1′-cyclopropan]-5-one]	190 pM	230 pM	1250 pM
COc1cc2c(cc1OCCCCCOc1cc3c(cc1OC)C(=O)N1C=C(c4ccc(C5CCN(C(=O)CO)CC5)cc4)C[C@H]1CN3)N=C[C@@H]1CC3(CC3)CN1C2=O [2-10, (S)-8-((5-(((S)-2-(4-(1-(2-Hydroxyacetyl)piperidin-4-yl)phenyl)-7-methoxy-5-oxo-5,10,11,11a-tetrahydro-1H-benzo[e]pyrrolo[1,2-a][1,4]diazepin-8-yl)oxy)pentyl)oxy)-7-methoxy-1,11a-dihydro-3H,5H-spiro[benzo[e]pyrrolo[1,2-a][1,4]diazepine-2,1′-cyclopropan]-5-one]	610 pM	200 pM	630 pM
COc1cc2c(cc1OCCCCCOc1cc3c(cc1OC)C(=O)N1C=C(c4ccc(C5CCN(C(C)=O)CC5)cc4)C[C@H]1CN3)N=C[C@@H]1CC3(CC3)CN1C2=O [2-11, (S)-8-((5-(((S)-2-(4-(1-Acetylpiperidin-4-yl)phenyl)-7-methoxy-5-oxo-5,10,11,11a-tetrahydro-1H-benzo[e]pyrrolo[1,2-a][1,4]diazepin-8-yl)oxy)pentyl)oxy)-7-methoxy-1,11a-dihydro-3H,5H-spiro[benzo[e]pyrrolo[1,2-a][1,4]diazepine-2,1′-cyclopropan]-5-one]	690 pM	110 pM	320 pM
COc1ccc(C2=CN3C(=O)c4cc(OC)c(OCC5(CCCOc6cc7c(cc6OC)C(=O)N6CC8(CC8)C[C@H]6C=N7)CC5)cc4NC[C@@H]3C2)cc1 [2-13, (S)-7-Methoxy-8-(3-(1-((((S)-7-methoxy-2-(4-methoxyphenyl)-5-oxo-5,10,11,11a-tetrahydro-1H-benzo[e]pyrrolo[1,2-a][1,4]diazepin-8-yl)oxy)methyl)cyclopropyl)propoxy)-1,11a-dihydro-3H,5H-spiro[benzo[e]pyrrolo[1,2-a][1,4]diazepine-2,1′-cyclopropan]-5-one]	4350 pM	1420 pM	1640 pM
COc1ccc(C2=CN3C(=O)c4cc(OC)c(OCCCCCOc5cc6c(cc5OC5CC5)C(=O)N5CC7(CC7)C[C@H]5C=N6)cc4NC[C@@H]3C2)cc1 [2-16, (S)-7-Cyclopropoxy-8-((5-(((S)-7-methoxy-2-(4-methoxyphenyl)-5-oxo-5,10,11,11a-tetrahydro-1H-benzo[e]pyrrolo[1,2-a][1,4]diazepin-8-yl)oxy)pentyl)oxy)-1,11a-dihydro-3H,5H-spiro[benzo[e]pyrrolo[1,2-a][1,4]diazepine-2,1′-cyclopropan]-5-one]	260 pM	180 pM	360 pM
COc1ccc(C2=CN3C(=O)c4cc(OC)c(OCCCCCOc5cc6c(cc5OC)C(=O)N5[C@H](C=N6)C[C@@H]6C[C@@H]65)cc4NC[C@@H]3C2)cc1 [2-21, (1aS,9aS,10aS)-5-Methoxy-6-((5-(((S)-7-methoxy-2-(4-methoxyphenyl)-5-oxo-5,10,11,11a-tetrahydro-1H-benzo[e]pyrrolo[1,2-a][1,4]diazepin-8-yl)oxy)pentyl)oxy)-1a,9a,10,10a-tetrahydrobenzo[e]cyclopropa[4,5]pyrrolo[1,2-a][1,4]diazepin-3(1H)-one]	570 pM	120 pM	280 pM
COc1ccc(C2=CN3C(=O)c4cc(OC)c(OCCCCCOc5cc6c(cc5OC)C(=O)N5CC7(CC7)C[C@H]5C=N6)cc4NC(=O)[C@@H]3C2)cc1 [2-22, (S)-7-Methoxy-8-((5-(((S)-7-methoxy-5-oxo-5,11a-dihydro-1H,3H-spiro[benzo[e]pyrrolo[1,2-a][1,4]diazepine-2,1′-cyclopropan]-8-yl)oxy)pentyl)oxy)-2-(4-methoxyphenyl)-1,11a-dihydro-5H-benzo[e]pyrrolo[1,2-a][1,4]diazepine-5,11(10H)-dione]	170 pM	80 pM	260 pM
